Assay results reported in paper PMC10703884, “Targeting the COMMD4–H2B protein complex in lung cancer” (British Journal of Cancer, 2023).
No end group written: not given here.

Legend:
[1] = system: H460, H1299 and CRL5889 NSCLC cells; assay: Clonogenic cell viability after IR, NSCLC cells; assay type: cell-based; details: varying IR doses, 7–10 days recovery, three independent experiments, compared to control siRNA or FLAG-H2BMUT1/mock
Description: H1299, CRL5889 and H460 cells were cultured in Roswell Park Memorial Institute (RPMI) 1640 medium (Life Technologies) containing 10% foetal bovine serum (Thermo Fisher Scientific). Human bronchial epithelial cells (HBEC3-KT) were maintained in keratinocyte serum-free medium supplemented with epidermal growth factor and bovine pituitary extract (Life Technologies). The histology features and origin of all cell lines used have been previously described. Cell lines were authenticated using STR profiling. Cells were grown in a humidified incubator at 37 °C/5% CO2 atmosphere. All cell lines were verified to be free of mycoplasma contamination.
Irradiations were done at room temperature using a ^137Cs source (Gammacell 40 Exactor [MDS Nordion]; dose rate 1.1 Gy/min). Phalloidin-Atto 488 was purchased from Sigma-Aldrich and Hoechst 33342 was purchased from Thermo Fisher Scientific.
For siRNA transfections, cells were transfected with negative control or COMMD4 siRNA #2 (CCAUGUCCCUCUCAGCAGA[dT][dT] MISSION® siRNA, Sigma-Aldrich) using RNAiMax (Life Technologies) as previously described and samples were analysed 48 to 72 h post-transfection. […] Cells were mock-transfected, or transfected with FLAG-H2BWT/FLAG-H2BMUT1, or COMMD4-FLAG/A70K with FuGENE® HD (Promega) using the manufacturer’s protocol and analysed 24 h post-transfection. […]

GST-COMMD4 = assay: FLAG immunoprecipitation, FLAG-H2B constructs with COMMD4; assay type: binding; details: FLAG-H2B immunoprecipitated from HEK293T cells, anti-FLAG M2 Dynabeads, 4 °C, immunoblot for GST-COMMD4 and FLAG
Description: (§1) For siRNA transfections, cells were transfected with negative control or COMMD4 siRNA #2 (CCAUGUCCCUCUCAGCAGA[dT][dT] MISSION® siRNA, Sigma-Aldrich) using RNAiMax (Life Technologies) as previously described and samples were analysed 48 to 72 h post-transfection. The H2B wild-type (FLAG-H2BWT) and mutant (FLAG-H2BMUT1) expression constructs were generated with the 10-amino acid peptide and the corresponding mutant cloned into the expression vector pCDNA3.1/(+)-N-DYK containing an N-terminal FLAG tag and a C-terminal nuclear localisation signal (AAKRVKLDS) (GenScript). A70K FLAG-COMMD4 expression construct was generated by mutating the corresponding COMMD4-FLAG construct to harbour an A70K mutation (GenScript). Cells were mock-transfected, or transfected with FLAG-H2BWT/FLAG-H2BMUT1, or COMMD4-FLAG/A70K with FuGENE® HD (Promega) using the manufacturer’s protocol and analysed 24 h post-transfection.
Co-immunoprecipitations were performed as previously summarised, using ice-cold NP40 buffer. Assays for co-immunoprecipitations were performed at 4 °C from HEK293T, transiently expressing the FLAG-H2B WT or MUT plasmid. Proteins were captured using anti-FLAG M2 Dynabeads (ThermoFisher) and washed three times in NP40 buffer prior to analysis. […]

HBEC3-KT cells = assay: Immunofluorescence γH2AX and MDC1 foci, HBEC3-KT cells; assay type: cell-based, Human; details: 6 Gy IR, 50 cells per condition, three independent experiments
Description: as §1
NSCLC and control cells transfected with siRNA or H2B plasmids were grown in optical glass bottom 96-well plates (Cellvis). Post-treatment, cells were pre-extracted with ice-cold extraction buffer (20 mM HEPES (pH 8), 20 mM NaCl, 5 mM MgCl2, 1 mM ATP, 0.5% NP40), to remove the soluble proteins and processed as previous. […] Images were analysed using the InCarta Image Analysis software (GE Healthcare Life Sciences) where a minimum of 50 nuclei were quantified per experiment. […]

COMMD4 = assay: FLAG pull-down in control and COMMD4 siRNA depleted cells; assay type: binding; details: overexpressed FLAG-H2B after control or COMMD4 siRNA
Description: as §1
Co-immunoprecipitations were performed as previously summarised, using ice-cold NP40 buffer. Assays for co-immunoprecipitations were performed at 4 °C from HEK293T, transiently expressing the FLAG-H2B WT or MUT plasmid. Proteins were captured using anti-FLAG M2 Dynabeads (ThermoFisher) and washed three times in NP40 buffer prior to analysis.
To support predicted models, we next designed peptides to perform mapping. […]

## FLAG-H2BWT: 10-amino acid peptide cloned into expression vector containing an N-terminal FLAG tag and a C-terminal nuclear localisation signal ({FLAG}-SFVNDIFERIAAKRVKLDS)
[1]
  sensitivity to ionising radiation (clonogenic viability): resulted in a similar phenotype to COMMD4 siRNA depletion, albeit less pronounced, where hypersensitivity to IR was observed relative to cells expressing the mutant peptide (FLAG-H2BMUT1)
GST-COMMD4
  binding of overexpressed FLAG-H2B construct to COMMD4: interacted with COMMD4
HBEC3-KT cells
  γH2AX and MDC1 (DNA repair) foci: exhibited increased DNA repair foci
COMMD4
  binding to COMMD4 in control or COMMD4 siRNA-depleted cells: binding to COMMD4 was only possible in control siRNA-depleted cells
